Measurements from patent US8946478B2, “Benzamide derivative with anticancer activity and preparation method and use thereof” (Zhejiang Hisun Pharmaceutical Co., Ltd., priority 2010, dated 2015).

Tests used:
[1] = tested on: human colon cancer cell strain HCT-116; assay: In vitro SRB tumor cell growth inhibition (GI50); assay type: cell-based; conditions: Homo sapiens, HCT-116, 48 h, HCT-116 cells
Experimental: (§1) Human colon cancer cell strains (Colo205 and HCT-116), human breast cancer cell strains (MCF-7 and MDA-MB435), human lung cancer cell strains (A549, 95D and NCI460), human ovarian cancer cell strains (OVCAR-5, OVCAR-8, HO8910 and SKOV-3), human leukemia (HL-60 and K562), human prostate cancer (DU145 and BXPC-3), human uterine cancer (Hela), human pancreatic cancer (PANC-1), human hepatoma (HepG 2) were all obtained from ATCC. Colo205, HL-60, K562 cells were cultured in RPMI 1640 containing 2 mM/L glutamine, 10% FBS, 1.0 mM sodium pyruvate. HCT-116, MCF-7, A549, 95D, HO8910, NCI460, OVCAR-5, OVCAR-8, DU145, BXPC-3, Hela, PANC-1, HepG2 cells were cultured in DMEM containing 2 mM/L glutamine, 10% FBS. MDA-MB435 cells were cultured in L-15 containing 2 mM/L glutamine, 10% FBS. SKOV-3 cells were cultured in McCoy's containing 2 mM/L glutamine, 10% FBS. Colo205, HL-60 and K562 cells were seeded in 96-well plates, 150 μL/well and 8000 cells/well, and the 96-well plates were pre-incubated in an incubator at 37° C. with 5% CO2, 100% relative humidity for 24 hours. HCT-116, MCF-7, NCI460, OVCAR-5, OVCAR-8, Hela, HepG 2 and MDA-MB435 cells were seeded in 96-well plates, 5000 cells/well; A549, 95D, HO8910, DU145, BXPC-3, PANC-1 and SKOV-3 cells were seeded in 96-well plates, 10000 cells/well, and the 96-well plates were pre-incubated in an incubator at 37° C. with 5% CO2, 100% relative humidity for 24 hours, to allow the cells to adhere.
(§2) 50 μL of pre-cooled 50% (mass/volume) TCA was added into the time zero control wells for each cell strain to fix the cells. To other wells, 50 μL of various concentrations of compounds were added, and maintained for 48 h, wherein each drug concentration was in triplicate, and there were blank control wells (cell culture medium without cells), drug-free control wells (with no drugs but the same volume of complete medium) and positive drug BSI-201 control wells, and the plates were incubated in an incubator at 37° C. with 5% CO2, full humidity (100% relative humidity) for 48 hours
(§3) 50 μL pre-cooled 50% (mass/volume) TCA was added onto the surface of the culture medium to fix the cells, which was then placed at 4° C. for 1 h. The supernatant was removed and each well was washed with deionized water for 5 times to remove TCA, serum proteins, etc. After dried in the air, about 100 μL enough amount of 0.4% SRB (formulated with 1% acetic acid) was added into each well, and was placed at room temperature for 20 to 30 min. Liquid in each well was discarded and each well was rapidly washed with 1% acetic acid for five times, to remove unbound dye until the unbound dye was completely rinsed clean. After dried in the air until the moisture was invisible, each well was added 200 μL Tris base to dissolve, shaken on a plate oscillator for 5 min or mixed by beating up and down with a pipette tip, and then measured on the multi-function instruction (M5 Detection System, MD Group Ltd.) with a detection wavelength of 515 nm, zero adjusted with 690 nm blank control.
(§4) The dose-response curve was plotted by XL-fit to determine the GI50 value.

[2] = tested on: human lung cancer cell strain NCI-460; assay: In vitro SRB tumor cell growth inhibition (GI50); assay type: cell-based; conditions: Homo sapiens, NCI-460, 48 h, NCI-460 cells
Experimental: as §1, §2, §3, §4

[3] = tested on: human uterine cancer Hela; assay: In vitro SRB tumor cell growth inhibition (GI50); assay type: cell-based; conditions: Homo sapiens, HeLa, 48 h, Hela cells
Experimental: as §1, §2, §3, §4

[4] = tested on: human ovarian cancer cell strain OVCAR-5; assay: In vitro SRB tumor cell growth inhibition (GI50); assay type: cell-based; conditions: OVCAR-5 cells, 48 h
Experimental: as §1, §2, §3, §4

human hepatoma HepG 2 = assay: In vitro SRB tumor cell growth inhibition (GI50); assay type: cell-based; conditions: HepG2, HepG 2 cells, 48 h
Experimental: as §1, §2, §3, §4

[5] = tested on: human ovarian cancer cell strain OVCAR-8; assay: In vitro SRB tumor cell growth inhibition (GI50); assay type: cell-based; conditions: Homo sapiens, OVCAR-8, 48 h, OVCAR-8 cells
Experimental: as §1, §2, §3, §4

[6] = tested on: human pancreatic cancer PANC-1; assay: In vitro SRB tumor cell growth inhibition (GI50); assay type: cell-based; conditions: Homo sapiens, PANC-1, 48 h, PANC-1 cells
Experimental: as §1, §2, §3, §4

human leukemia K562 = assay: In vitro SRB tumor cell growth inhibition (GI50); assay type: cell-based; conditions: Homo sapiens, K562, 48 h, K562 cells
Experimental: as §1, §2, §3, §4

[7] = tested on: human lung cancer cell strain A549; assay: In vitro SRB tumor cell growth inhibition (GI50); assay type: cell-based; conditions: A549 cells, 48 h
Experimental: as §1, §2, §3, §4

[8] = tested on: human ovarian cancer cell strain HO8910; assay: In vitro SRB tumor cell growth inhibition (GI50); assay type: cell-based; conditions: HO-8910, HO8910 cells, 48 h
Experimental: as §1, §2, §3, §4

[9] = tested on: human lung cancer cell strain 95D; assay: In vitro SRB tumor cell growth inhibition (GI50); assay type: cell-based; conditions: Homo sapiens, 95-D, 48 h, 95D cells
Experimental: as §1, §2, §3, §4

human leukemia HL-60 = assay: In vitro SRB tumor cell growth inhibition (GI50); assay type: cell-based; conditions: Homo sapiens, HL-60, 48 h, HL-60 cells
Experimental: as §1, §2, §3, §4

[10] = tested on: human colon cancer cell strain Colo205; assay: In vitro SRB tumor cell growth inhibition (GI50); assay type: cell-based; conditions: Colo 205 cells, 48 h
Experimental: as §1, §2, §3, §4

[11] = tested on: human breast cancer cell strain MDA-MB435; assay: In vitro SRB tumor cell growth inhibition (GI50); assay type: cell-based; conditions: Homo sapiens, MDA-MB-435, 48 h, MDA-MB435 cells
Experimental: as §1, §2, §3, §4

[12] = tested on: human ovarian cancer cell strain SKOV-3; assay: In vitro SRB tumor cell growth inhibition (GI50); assay type: cell-based; conditions: SK-OV-3, SKOV-3 cells, 48 h
Experimental: as §1, §2, §3, §4

[13] = tested on: human prostate cancer DU145; assay: In vitro SRB tumor cell growth inhibition (GI50); assay type: cell-based; conditions: Homo sapiens, DU-145, 48 h, DU145 cells
Experimental: as §1, §2, §3, §4

[14] = tested on: human breast cancer cell strain MCF-7; assay: In vitro SRB tumor cell growth inhibition (GI50); assay type: cell-based; conditions: Homo sapiens, MCF7, 48 h, MCF-7 cells
Experimental: as §1, §2, §3, §4

[15] = tested on: human prostate cancer BXPC-3; assay: In vitro SRB tumor cell growth inhibition (GI50); assay type: cell-based; conditions: BXPC-3 cells, 48 h
Experimental: as §1, §2, §3, §4

18 tumor cell strains = assay: In vitro efficacy screening, summary over the tumor cell strains; assay type: cell-based, human; conditions: in vitro screening; for inhibitory effects on tumor cell proliferation (in words): BSI-201 as positive drug
Experimental: as §1, §2, §3, §4

Structure (SMILES) | GI50 [1] [µM] | GI50 [2] [µM] | GI50 [3] [µM] | GI50 [4] [µM] | GI50 (human hepatoma HepG 2) [µM] | GI50 [5] [µM] | GI50 [6] [µM] | GI50 (human leukemia K562) [µM] | GI50 [7] [µM] | GI50 [8] [µM] | GI50 [9] [µM] | GI50 (human leukemia HL-60) [µM] | GI50 [10] [µM] | GI50 [11] [µM] | GI50 [12] [µM] | GI50 [13] [µM] | GI50 [14] [µM] | GI50 [15] [µM] | efficacy in inhibition of tumor cell proliferation, graded in words against I-1 (18 tumor cell strains) | inhibitory effects on tumor cell proliferation (in words) (18 tumor cell strains)
C#Cc1ccc(C(=O)N2CCCC2)cc1[N+](=O)[O-] [Compound I-20, (4-ethynyl-3-nitrophenyl)(pyrrolidin-1-yl)ketone] | 9.99 | 19.9 | 8.98 | 20.3 | 5.54 | 4.01 | 7.64 | 4.35 | 17.3 | 4.85 | 15.1 | 2.24 | 2.61 | 8.49 | 9.91 | 4.99 | 20.6 | 3.35 | slightly lower than that of I-1 | have inhibitory effects on tumor cell proliferation
C#Cc1ccc(C(=O)N2CCCCC2)cc1[N+](=O)[O-] [Compound I-21, (4-ethynyl-3-nitrophenyl)(piperidin-1-yl)ketone] | 8.44 | 5.86 | 4.17 | 17.5 | 16 | 1.64 | 12.5 | 1.77 | 17.9 | 4.34 | 14.5 | 2.87 | 1.52 | 5.86 | 22.5 | 2.24 | 16.1 | 3.91 | slightly lower than that of I-1 | have inhibitory effects on tumor cell proliferation
C#Cc1ccc(C(=O)N(CC)CC)cc1[N+](=O)[O-] [Compound I-14, N,N-diethyl-4-ethynyl-3-nitrobenzamide] | 11.2 | 20.9 | 6.7 | 20.9 | 4.27 | 3.64 | 19.9 | 4.52 | 17.6 | 5 | 16.8 | 1.99 | 2.79 | 1.01 | 10.3 | 4.17 | 20.1 | 4.9 | slightly lower than that of I-1 | have inhibitory effects on tumor cell proliferation
